Measured values as given in US12123059B2, “Predicting cardiotoxicity risk in cancer patients receiving anthracyclines chemotherapy” (Fundación Para La Investigación Del Hospital Universitario …, priority 2018, dated 2024).

System: human cardiomyocytes
Test: Modulation of miRNA copy number by Doxorubicin in human cardiomyocytes in culture
Assay type: cell-based
Settings: Doxorubicin 1 μM for 24 h, FIG. 4
Method: FIG. 4. (A, B) Graphics showing modulation of miRNAs by Doxorubicin in human cardiomyocytes and patients' serum. Left panels show copy number of indicated miRNAs in cardiomyocytes in culture before or after the addition of Doxorubicin (1 μM) for 24 h. Right panels show copy numbers of indicated miRNAs as detected by RNAseq in serum from control patients and cases and expressed as mean±SEM (N=10 in each case) before or after completion of anthracycline chemotherapy. Only miRNAs showing a similar tendency in cells and patients' serum are illustrated. *P<0.05.
The specific signature of miRNAs has been detected in serum. Since the pathways related to miRNAs are linked to cardiomyocytes, the copy number of the miRNAs of interest in human cardiomyocytes was also measured. As observed in FIG. 4, the miRNAs previously detected in serum were also present in human cardiomyocytes (left panels) and their expression level is altered when cells are damaged by Doxorubicin. […] As shown in the right panel of FIG. 4, the copy number of miRNA-22-3p increases both in cells and serum of patients after anthracycline treatment whereas miRNA-30b, miRNA-148a, miRNA-150-5p, and miRNA-4732-3p decrease their expression levels. […] Indeed, this set of miRNAs regulates genes involved in the aforementioned biological pathways (FIG. 5)

copy number of miRNA-22-3p: increases
expression level of miRNA-30b: decrease
expression level of miRNA-148a: decrease
expression level of miRNA-150-5p: decrease
expression level of miRNA-4732-3p: decrease
Structure (SMILES): COc1cccc2c1C(=O)c1c(O)c3c(c(O)c1C2=O)C[C@@](O)(C(=O)CO)C[C@@H]3O[C@H]1C[C@H](N)[C@H](O)[C@H](C)O1 [Doxorubicin]
